“And” between values parts separate entries of the source, which are not always exact repeats. Identical values can stand only once.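 Five concentrations, 48 hours, 96-well plates. Abbreviation: GI50, concentration required for 50% inhibition of growth. TGI marks complete inhibition of growth.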

Test systems include MDA-MB-435; SW-620 colon; HCT-116 colon; MOLT-4 leukemia; SN12C renal; DU-145 prostate; UACC-62 melanoma; KM12 colon; OVCAR-3 ovarian; PC-3 prostate.
Holding throughout (test): NCI tumour cell line growth inhibition, 48 h

Regarding `CNC(=O)c1cc(OC2CCC(NC(=O)Nc3ccc(Cl)c(C(F)(F)F)c3)CC2)ccn1` (configuration not stated), the GI50 was 4.16 µM in the experiment on MDA-MB-435; 11.5 µM in the experiment on SW-620 colon; 4.35 µM with HCT-116 colon; 4 µM with MOLT-4 leukemia; 6.2 µM with SN12C renal; 12.8 µM in the experiment on DU-145 prostate. Also, the GI50 in the experiment with UACC-62 melanoma is 5.41 µM; with KM12 colon, 0.713 µM; in the experiment on OVCAR-3 ovarian, 10.7 µM; in the experiment on PC-3 prostate it was 3.51 µM. Besides, the TGI in the experiment on MDA-MB-435 is 24.8 µM; in the experiment with SW-620 colon, 31.2 µM; in the experiment with HCT-116 colon, 16.6 µM; with MOLT-4 leukemia, 21.5 µM; in the experiment with SN12C renal, 22.1 µM; in the experiment on DU-145 prostate it was 32.5 µM. Also, the TGI is 19.4 µM with UACC-62 melanoma, 14 µM in the experiment with KM12 colon, 32 µM in the experiment with OVCAR-3 ovarian and above 44.6 µM with PC-3 prostate.
For the compound `COc1ccc2cc(C(=O)/C=C/c3cc(OC)c(OC)c(OC)c3)ccc2c1`, the GI50 in the experiment on MDA-MB-435 is 2.67 µM; with SW-620 colon, 1.51 µM; in the experiment on HCT-116 colon, 1.62 µM; with MOLT-4 leukemia, 2.91 µM; in the experiment on SN12C renal it was 1.73 µM; in the experiment on DU-145 prostate, 2.06 µM. Besides, the GI50 was 5.25 µM in the experiment with UACC-62 melanoma, 2.3 µM in the experiment with KM12 colon, 5.86 µM in the experiment on OVCAR-3 ovarian and 9.84 µM with PC-3 prostate. Also, the TGI was 40.5 µM in the experiment with MDA-MB-435; 6.91 µM in the experiment on SW-620 colon; 8.27 µM in the experiment on HCT-116 colon; above 50 µM in the experiment with MOLT-4 leukemia; 8.78 µM with SN12C renal; 11.2 µM in the experiment on DU-145 prostate. The TGI in the experiment with UACC-62 melanoma was 12.7 µM; in the experiment on KM12 colon it was 35.7 µM; in the experiment with OVCAR-3 ovarian it was above 50 µM; in the experiment with PC-3 prostate it was above 50 µM.
As to `Cc1ccc(CNc2c3ccccc3nc3ccccc23)cc1`, the GI50 with MDA-MB-435 was 1.63 µM; in the experiment with SW-620 colon it was 1.62 µM; in the experiment on HCT-116 colon it was 0.88 µM; in the experiment with MOLT-4 leukemia it was 2.85 µM; in the experiment on SN12C renal, 2.6 µM; with DU-145 prostate, 3.02 µM. In addition, the GI50 in the experiment with UACC-62 melanoma is 1.75 µM; in the experiment on KM12 colon it was 3.4 µM; with OVCAR-3 ovarian, 2.42 µM; with PC-3 prostate it was 1.87 µM. The TGI was 3.1 µM in the experiment on MDA-MB-435; 5.32 µM with SW-620 colon; 6.6 µM in the experiment with HCT-116 colon; 10.5 µM with MOLT-4 leukemia; 11.1 µM in the experiment with SN12C renal; 11.4 µM with DU-145 prostate. The TGI in the experiment with UACC-62 melanoma was determined as 4.1 µM; in the experiment on KM12 colon, 12.9 µM; in the experiment on OVCAR-3 ovarian, 6.22 µM; with PC-3 prostate, 7.11 µM.
As for `COc1ccc2c(c1)[nH]c(=O)c1c3cc(C)c(C)cc3cn21`, the GI50 in the experiment with MDA-MB-435 was below 0.01 µM; in the experiment with SW-620 colon, below 0.01 µM; in the experiment on HCT-116 colon, below 0.01 µM; with MOLT-4 leukemia it was below 0.0176 µM; in the experiment on SN12C renal, below 0.0192 µM; with DU-145 prostate it was below 0.01 µM. Besides, the GI50 in the experiment on UACC-62 melanoma was below 0.0204 µM; with KM12 colon it was 0.0292 µM; in the experiment with OVCAR-3 ovarian it was below 0.01 µM; in the experiment with PC-3 prostate, below 0.01 µM. Further, the TGI turned out to be 1.47 µM in the experiment with SW-620 colon; 0.516 µM with HCT-116 colon; 0.281 µM with MOLT-4 leukemia; 1.74 µM in the experiment with SN12C renal; 0.188 µM in the experiment with DU-145 prostate; 5.32 µM with UACC-62 melanoma. Moreover, the values for the TGI in the experiment on KM12 colon, with OVCAR-3 ovarian and in the experiment with PC-3 prostate were 0.109 µM, below 0.0143 µM and 1.58 µM, respectively.
In the case of `COc1ccc2nc(N/N=C(\C)c3ccccn3)cc(C)c2c1`, the GI50 with MDA-MB-435 is 0.408 µM; in the experiment with SW-620 colon, 0.381 µM; with HCT-116 colon it was 0.363 µM; in the experiment with MOLT-4 leukemia, 0.131 µM; in the experiment on SN12C renal it was 0.317 µM; with DU-145 prostate, 0.215 µM. For the same compound, the GI50 in the experiment with UACC-62 melanoma is 0.275 µM; in the experiment on KM12 colon it was 0.321 µM; in the experiment on OVCAR-3 ovarian, 0.0652 µM; in the experiment with PC-3 prostate, 0.433 µM. Also, the TGI with MDA-MB-435 amounted to 1.69 µM; in the experiment on SW-620 colon it was 1.75 µM; in the experiment with HCT-116 colon it was 1.13 µM; in the experiment on MOLT-4 leukemia, 0.488 µM; in the experiment on SN12C renal, 1.71 µM; in the experiment on DU-145 prostate, 1.17 µM. In addition, the TGI in the experiment on UACC-62 melanoma worked out at 1.01 µM; with KM12 colon, 1.6 µM; in the experiment with OVCAR-3 ovarian, 0.215 µM; in the experiment with PC-3 prostate, 5.68 µM.
In the case of `CN1CC[C@@H](c2c(O)cc(O)c3c(=O)cc(-c4ccccc4Cl)oc23)[C@@H](O)C1`, the GI50 with MDA-MB-435 is 0.0886 µM and 0.0744 µM; in the experiment on SW-620 colon it was 0.0594 µM and 0.0653 µM; in the experiment on HCT-116 colon, 0.0338 µM and 0.0258 µM; in the experiment on MOLT-4 leukemia, 0.0429 µM and 0.0288 µM; in the experiment on SN12C renal, 0.213 µM; in the experiment with DU-145 prostate it was 0.0774 µM and 0.0902 µM. Besides, the GI50 in the experiment on UACC-62 melanoma is 0.0571 µM and 0.0424 µM; in the experiment with KM12 colon, 0.0511 µM; with OVCAR-3 ovarian, 0.0636 µM and 0.0375 µM and 0.0256 µM; in the experiment with PC-3 prostate it was 0.0655 µM and 0.0735 µM. The TGI was 0.261 µM and 0.22 µM and 0.342 µM in the experiment with MDA-MB-435; 23.2 µM with SW-620 colon; 27.5 µM in the experiment on HCT-116 colon; 0.662 µM and 0.521 µM in the experiment on MOLT-4 leukemia; 13.2 µM with SN12C renal; 0.133 µM and 0.182 µM and 0.102 µM with UACC-62 melanoma. Moreover, the figures for the TGI in the experiment on KM12 colon and in the experiment on OVCAR-3 ovarian were 26.6 µM and above 19.4 µM, respectively.
As for `ClCc1cccc(Cn2cnc3c(Cl)ncnc32)c1`, the GI50 with MDA-MB-435 was 1.69 µM; in the experiment on SW-620 colon, 2.12 µM; in the experiment with HCT-116 colon, 1.48 µM; in the experiment on MOLT-4 leukemia, 15.8 µM; in the experiment on SN12C renal, 2.32 µM; in the experiment on DU-145 prostate, 11.2 µM. The GI50 was 1.82 µM in the experiment on UACC-62 melanoma, 3.47 µM in the experiment with KM12 colon, 1.63 µM with OVCAR-3 ovarian and 4.18 µM in the experiment on PC-3 prostate. For the same compound, the TGI in the experiment with MDA-MB-435 was 3.29 µM; in the experiment with SW-620 colon, 4.33 µM; in the experiment on HCT-116 colon, 3.07 µM; in the experiment on MOLT-4 leukemia, 37.4 µM; in the experiment with SN12C renal, 5.13 µM; with DU-145 prostate it was 24 µM. Besides, the TGI amounted to 3.4 µM in the experiment with UACC-62 melanoma, 13.4 µM in the experiment with KM12 colon, 3.05 µM in the experiment with OVCAR-3 ovarian and 18.3 µM with PC-3 prostate.

The values above are taken from PubChem BioAssay (NCI).
